Source: patent US20150320706A1, “FORMULATIONS AND METHODS OF TREATING ALZHEIMER'S DISEASE AND OTHER PROTEINOPATHIES BY COMBINATION THERAPY” (CHIESI FARMACEUTICI S.P.A., priority 2014, published 2015)
Entries after “also recorded” stand apart in the source; their conditions may differ.

Tests used:
Notch = details: cited from earlier work
[1] = test system: human APP transgenic mice models of AD; details: transgenic mouse models of AD; cited from earlier work
sCD40L and TNF-α = assay: Neuroinflammation biomarkers in cerebrospinal fluid of MCI patients; format: in vivo, human; details: MCI patients, 200, 400 and 600 mg/day
Experimental: (§1) Methods: At the end of a 14-week double-blind, placebo-controlled study in 96 MCI patients evaluating three titrated dose regimens of CHF 5074 (200, 400 and 600 mg/day), patients were given the option to enter a 76-week open label extension study. Patients received CHF 5074 at the dose equal to that of their originally assigned double-blind study cohort. Patients were monitored for vital signs, cardiac activity, neuropsychological performance and safety laboratory parameters.

[2] = in vivo, cited from earlier work
[3] = test system: TNF-α and soluble CD 40 ligand (sCD40L); details: healthy subjects and individuals with MCI; cited from earlier work
[4] = test system: MCI (mild cognitively impaired) patients; assay: Cognitive tests in open label extension study of CHF 5074 in MCI patients; format: in vivo, human
Experimental: (§2) In Example 1, the safety and tolerability and cognitive effects of CHF 5074 was analyzed after prolonged treatment in MCI (mild cognitively impaired) patients.
as §1

Aβ42 = details: in vitro; cited from earlier work
microglia = details: response to an Aβ42 stimulus; cited from earlier work
[5] = test system: MCI (mild cognitively impaired) patients; assay: Safety and tolerability after prolonged treatment in MCI patients; format: in vivo, human
Experimental: as §2, §1

[6] = test system: cognitively normal elderly subjects; details: cited from earlier work
[7] = test system: patients with mild cognitive impairment (MCI); details: cited from earlier work
β-amyloid = details: cited from earlier work
Sequence of β-amyloid (P05067 672-711 limits assumed): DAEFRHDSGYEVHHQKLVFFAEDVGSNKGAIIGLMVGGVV

[8] = APOE4 non-carriers, Study Week 64

O=C(O)C1(c2ccc(-c3ccc(Cl)c(Cl)c3)c(F)c2)CC1 [CHF 5074, 1-(3′,4′-dichloro-2-fluorobiphenyl-4-yl)cyclopropanecarboxylic acid]
effects on Notch processing (Notch): lack of effects on Notch processing | brain plaque deposition [1]: prevent brain plaque deposition; also recorded: inhibit brain plaque deposition | memory deficits [1]: attenuate memory deficits; also recorded: attenuate or reverse associated memory deficits | neuroinflammation biomarkers (CSF sCD40L and TNF-α) (sCD40L and TNF-α): dose-dependently lowered | oral absorption ([2]; po): good oral absorption | brain penetration [2]: satisfactory brain penetration | half-life [2]: long half-life | CSF biomarkers of neuroinflammation, TNF-α and sCD40L [3]: lowers, in a dose-dependent fashion | verbal memory, week 88 change from baseline, comparison of doses ([4]; 200 mg/day and 400 mg/day compared to 600 mg/day (FIG. 1)): surprisingly superior | verbal memory at week 88 (number of words) ([4]; 200 mg/day and 400 mg/day doses (FIG. 8)): dose-dependent improvement | improvements as share of Baseline scores ([4]; APOE4 carriers, Immediate Word Recall and Trail Making Test-A, Study Week 64): 25-38% | Immediate Word Recall, improvement compared to Baseline ([4]; APOE4 carriers, Study Week 64, p=0.012 vs non-carriers): +5.4±1.2 words | Trail Making Test-A, improvement compared to Baseline ([4]; APOE4 carriers, Study Week 64, p=0.034 vs non-carriers): -12.4 ± 2.8 s | Immediate Word Recall, improvement compared to Baseline [4, 8]: +1.4±0.9 words | Trail Making Test-A, improvement compared to Baseline [4, 8]: -5.6 ± 3.3 s | Digit Symbol Substitution Test, improvement compared to Baseline ([4]; interim analysis, 32 patients reaching Study Week 64, p<0.001): +4.8±1.1 matches | Immediate Word Recall, improvement compared to Baseline ([4]; interim analysis, 32 patients reaching Study Week 64, p=0.001): +2.9±0.8 words | Trail Making Test-A, improvement compared to Baseline ([4]; interim analysis, 32 patients reaching Study Week 64, p=0.002): -8.1 ± 2.4 s | Delayed Word Recall, improvement compared to Baseline ([4]; interim analysis, 32 patients reaching Study Week 64, p=0.003): +1.3±0.4 words | Trail Making Test-B, improvement compared to Baseline ([4]; interim analysis, 32 patients reaching Study Week 64, p=0.004): -14.5 ± 4.6 s | Aβ42 inhibitory activity (Aβ42): selective Aβ42 inhibitory activity | M1 inflammatory activity of microglia (microglia): blunting or inhibiting M1 inflammatory activity | M2 phagocytic responses of microglia (microglia): stimulating M2 phagocytic responses | diarrhea, patients reporting ([5]; 200 mg/day): 1.4% | diarrhea, patients reporting ([5]; 400 mg/day): 6.3% | drop-outs for adverse events ([5]; 400 mg/day group, at Study Week 40 (pneumonia)): one | diarrhea, patients reporting ([5]; 600 mg/day): 16.0% | drop-outs for adverse events ([5]; 600 mg/day group, at Study Week 40 (serum creatinine elevation and worsening of cognitive function)): two | safety profile ([5]; MCI patients): acceptable safety profile | tolerability ([5]; prolonged treatment at doses up to and including 400 mg/day): well tolerated

COc1ccc2cc([C@H](C)C(=O)O)ccc2c1 [naproxen]
protection from the onset of AD compared to placebo ([6]; 4-year follow-up assessment): 67% | incidence of dementia ([6]; after two years of treatment): neither drug reduced the incidence of dementia

CS(=O)(=O)c1ccc(C2=C(c3ccccc3)C(=O)OC2)cc1 [rofecoxib]
outcome of secondary prevention study [7]: negative

MABT5102A: humanized monoclonal antibody against human Aβ1-40 and Aβ1-42 with an IgG4 backbone which reduces effector function
binding to β-amyloid species (β-amyloid): binds to soluble, oligomeric and fibrillar β-amyloid deposits
